Laboratory results taken from patent US20210309619A1, “ISOXAZOLIN-5-ONE DERIVATIVES AND HERBICIDES CONTAINING THE SAME AS ACTIVE INGREDIENTS” (HOKKO CHEMICAL INDUSTRY CO., LTD., priority 2018, published 2021).

Key:
Format in all cases: in vivo
Echinochloa crus-galli [1] = assay: Herbicidal effect test by treatment of stem and leaf in dry field farming (Test Example 4); conditions: 120 g/10 a, stem and leaf treatment seven days after seeding, 14 days after treatment
Source text: (§1) Herbicidal Rate (%)={1−(Average Dry Weight (g) of Plant of Treated Area)/(Average Dry Weight (g) of Plant of Untreated Area)}×100 [Math. 1] Pots with a size of 36 cm^2 were filled with a dry field farming soil (alluvium). The soil of the top layer of 1 cm and seeds of weeds, namely southern crabgrass, Echinochloa crus-galli, Chenopodium album and Amaranthus viridis, 20 seeds each, were evenly mixed, and the top layer was gently pressed. Emulsions prepared using the compounds in Table 6 below according to Formulation Example 5 were diluted with water seven days after seeding, and the water-diluted agent solutions were sprayed to the soil surfaces at a ratio of 100 liters per 10 ares. A converted amount of the applied active ingredient corresponded to 120 g per 10 ares. The herbicidal effects were evaluated by the same standard as that in Test Example 1, 14 days after the treatment with the agents. In this regard, the compound numbers in Table 6 are the same as those in Table 1 and Table 2 above.

Chenopodium album [2] = assay: as above; conditions: 120 g/10 a, stem and leaf treatment seven days after seeding, 14 days after treatment
Source text: as §1

southern crabgrass [3] = assay: as above; conditions: 120 g/10 a, stem and leaf treatment seven days after seeding, 14 days after treatment
Source text: as §1

Amaranthus viridis [4] = assay: as above; conditions: 120 g/10 a, stem and leaf treatment seven days after seeding, 14 days after treatment
Source text: as §1

Scirpus juncoides [5] = assay: Herbicidal effect test by treatment during growing period in paddy rice cultivation (Test Example 2); conditions: 120 g/10 a, treated seven days after seeding, 14 days after treatment
Source text: (§2) Herbicidal Rate (%)={1−(Average Dry Weight (g) of Plant of Treated Area)/(Average Dry Weight (g) of Plant of Untreated Area)}×100 [Math. 1]
(§3) Wagner pots with an area of 1/10000 ares were filled with a paddy soil, and a compound fertilizer (N:P:K=17:17:17) was mixed after addition of water, followed by soil puddling. Then, Echinochloa crus-galli, broad leaf weeds (Lindernia pyxidaria and Monochoria vaginalis) and Scirpus juncoides, 30 seeds each, were sown in a depth of 0 to 1 cm. Water was poured immediately after seeding, and the water depth was kept at about 3 cm. A subsequent management was conducted in a glass greenhouse. Emulsions prepared using the compounds in Table 4 below according to Formulation Example 5 were diluted with water seven days after seeding, and a certain amount of the water-diluted agent solutions were dropped. A converted amount of the applied active ingredient corresponded to 120 g per 10 ares. The test was conducted in a double system per one agent solution concentration area, and the herbicidal rates (%) were determined by the equation (Math. 1) 14 days after the treatment with the agents. In this regard, the compound numbers in Table 4 are the same as those in Table 1 and Table 2 above.

Lindernia pyxidaria [6] = assay: as above; conditions: 120 g/10 a, treated seven days after seeding, 14 days after treatment
Source text: as §2, §3

Monochoria vaginalis [7] = assay: as above; conditions: 120 g/10 a, treated seven days after seeding, 14 days after treatment
Source text: as §2, §3

Echinochloa crus-galli [8] = assay: as above; conditions: 120 g/10 a, treated seven days after seeding, 14 days after treatment
Source text: as §2, §3

Echinochloa crus-galli [9] = assay: Herbicidal effect test by treatment of dry field farming soil (Test Example 3); conditions: 120 g/10 a, sprayed one day after seeding, 14 days after treatment
Source text: as §1, with “Table 5” for “Table 6”, “water one day” for “water seven days”

Chenopodium album [10] = assay: as above; conditions: 120 g/10 a, sprayed one day after seeding, 14 days after treatment
Source text: as §1, with “Table 5” for “Table 6”, “water one day” for “water seven days”

southern crabgrass [11] = assay: as above; conditions: 120 g/10 a, sprayed one day after seeding, 14 days after treatment
Source text: as §1, with “Table 5” for “Table 6”, “water one day” for “water seven days”

Amaranthus viridis [12] = assay: as above; conditions: 120 g/10 a, sprayed one day after seeding, 14 days after treatment
Source text: as §1, with “Table 5” for “Table 6”, “water one day” for “water seven days”

Scirpus juncoides [13] = assay: Herbicidal effect test by treatment of rice paddy soil (Test Example 1); conditions: 120 g/10 a, treated immediately after seeding, 14 days after treatment
Description: (§4) Wagner pots with an area of 1/10000 ares were filled with a paddy soil, and a compound fertilizer (N:P:K=17:17:17) was mixed after water was added, followed by soil puddling. Then, Echinochloa crus-galli, broad leaf weeds (Lindernia pyxidaria and Monochoria vaginalis) and Scirpus juncoides, 30 seeds each, were sown in a depth of 0 to 1 cm. Water was poured immediately after seeding, and the water depth was kept at about 3 cm. A subsequent management was conducted in a glass greenhouse. Immediately after that, emulsions prepared using the compounds in Table 3 below according to Formulation Example 5 were diluted with water, and a certain amount of the water-diluted agent solutions were dropped. A converted amount of the applied active ingredient corresponded to 120 g per 10 ares.
(§5) This test was conducted in a double system per one agent solution concentration area, and the herbicidal rates (%) were determined by the following equation (Math. 1) 14 days after the treatment with the agents.
as §2

Lindernia pyxidaria [14] = assay: as above; conditions: 120 g/10 a, treated immediately after seeding, 14 days after treatment
Description: as §4, §5, §2

Monochoria vaginalis [15] = assay: as above; conditions: 120 g/10 a, treated immediately after seeding, 14 days after treatment
Description: as §4, §5, §2

Echinochloa crus-galli [16] = assay: as above; conditions: 120 g/10 a, treated immediately after seeding, 14 days after treatment
Description: as §4, §5, §2

CCCOC(=O)N(c1ccccc1Cc1c(C)n(C2CCCC2OC)oc1=O)S(=O)(=O)C(F)(F)F (centres unmarked) [Compound 200]
Herbicidal rate, Echinochloa crus-galli (Echinochloa crus-galli [1]): 90%
Herbicidal rate, Chenopodium album (Chenopodium album [2]): 90%
Herbicidal rate, southern crabgrass (southern crabgrass [3]): 80%
Herbicidal rate, Amaranthus viridis (Amaranthus viridis [4]): 90%
Herbicidal rate, Scirpus juncoides (Scirpus juncoides [5]): 90%
Herbicidal rate, Lindernia pyxidaria (Lindernia pyxidaria [6]): 80%
Herbicidal rate, Monochoria vaginalis (Monochoria vaginalis [7]): 90%
Herbicidal rate, Echinochloa crus-galli (Echinochloa crus-galli [8]): 100%
Herbicidal rate, Echinochloa crus-galli (Echinochloa crus-galli [9]): 90%
Herbicidal rate, Chenopodium album (Chenopodium album [10]): 60%
Herbicidal rate, southern crabgrass (southern crabgrass [11]): 90%
Herbicidal rate, Amaranthus viridis (Amaranthus viridis [12]): 60%
Herbicidal rate, Scirpus juncoides (Scirpus juncoides [13]): 100%
Herbicidal rate, Lindernia pyxidaria (Lindernia pyxidaria [14]): 100%
Herbicidal rate, Monochoria vaginalis (Monochoria vaginalis [15]): 100%
Herbicidal rate, Echinochloa crus-galli (Echinochloa crus-galli [16]): 100%

COC1CCCC1n1oc(=O)c(Cc2ccccc2N(C(=O)c2ccc(Cl)cc2)S(=O)(=O)C(F)(F)F)c1C (centres unmarked) [Compound 147]
Herbicidal rate, Echinochloa crus-galli (Echinochloa crus-galli [1]): 90%
Herbicidal rate, Chenopodium album (Chenopodium album [2]): 90%
Herbicidal rate, southern crabgrass (southern crabgrass [3]): 80%
Herbicidal rate, Amaranthus viridis (Amaranthus viridis [4]): 90%
Herbicidal rate, Scirpus juncoides (Scirpus juncoides [5]): 90%
Herbicidal rate, Lindernia pyxidaria (Lindernia pyxidaria [6]): 80%
Herbicidal rate, Monochoria vaginalis (Monochoria vaginalis [7]): 90%
Herbicidal rate, Echinochloa crus-galli (Echinochloa crus-galli [8]): 100%
Herbicidal rate, Echinochloa crus-galli (Echinochloa crus-galli [9]): 90%
Herbicidal rate, Chenopodium album (Chenopodium album [10]): 60%
Herbicidal rate, southern crabgrass (southern crabgrass [11]): 90%
Herbicidal rate, Amaranthus viridis (Amaranthus viridis [12]): 60%
Herbicidal rate, Scirpus juncoides (Scirpus juncoides [13]): 100%
Herbicidal rate, Lindernia pyxidaria (Lindernia pyxidaria [14]): 100%
Herbicidal rate, Monochoria vaginalis (Monochoria vaginalis [15]): 100%
Herbicidal rate, Echinochloa crus-galli (Echinochloa crus-galli [16]): 100%
